The results in this text go back to patent US6521669B1, “Hydroxystilbene compounds for reducing/inhibiting protein glycation” (Societe L'Oreal S.A., priority 1999, dated 2003).

As a reminder, the inhibition is the percentage by which the read-out fell short of the control. The % Inhibition is the percentage by which the read-out fell short of the control.

Structures are written as SMILES.

In one test the target is bovine serum albumin (Bos taurus, UniProt P02769). Put plainly: Glycation of bovine serum albumin with D-ribose, AGE fluorescence (Experiment 1). In kind it is biochemical. As to the method:
The glycation was evaluated by measuring the fluorescence of the AGEs at λem.=440 nm emitted by each sample after excitation at λex.=370 nm. The inhibition of glycation was visualized by the decrease in fluorescence compared with the sample treated with sugar alone.

Test [1] concerns human hair proteins (keratins). The experiment in a line: Glycation of isolated human hair proteins (keratins) with ribose, glycation index (Experiment 2). It is filed as biochemical. To be noted: 50 mM ribose, 50° C., 14 days. On the procedure: The glycation reaction was modelled in vitro in a biochemical model using human hair proteins (keratins) as a support for glycation with ribose. The test system consisted of isolated hair, incubated in a phosphate buffer (0.2M, pH=7.4) containing 50 mM of ribose (origin: Sigma). […] The assembly was incubated at 50° C. in the absence of light and air for 14 days. Control samples, incubated in the presence and absence of ribose, were tested in parallel. After incubation for 14 days, the incubation media were removed and the hair was washed with a solution containing 10 μM of guanidium chloride and then in water of MilliQ grade in order to remove all trace of free ribose. The hair was then placed in a solution containing 50% (v/v) of ethanol and 50 mM of DTT for 15 minutes at 37° C. After washing, the samples were placed in a solution containing 10 mM of 5,5′-dithiobis-2-nitrobenzoic acid. The absorbance relating to the free […] residues was measured at 415 nm. The samples were then washed in a 50% (v/v) ethanol solution and then heated for 30 minutes at 100° C. in a 2M hydrazine monohydrate solution (pH 9.4). After addition of a 1 mg/ml solution of phenylhydrazine in a 40% (v/v) acetic acid solution, the samples were incubated for [lacuna] 60° C. and the absorbance relating to the glycated proteins was measured at 390 nm. For each sample, the glycation index was evaluated by the ratio between the absorbance at 390 nm and the absorbance at 415 nm. [formula] The groups of data (control group and treated groups) were processed by means of a variance analysis (ANOVA), followed by a Dunett test.

bovine serum albumin, sequence (P02769 25-607): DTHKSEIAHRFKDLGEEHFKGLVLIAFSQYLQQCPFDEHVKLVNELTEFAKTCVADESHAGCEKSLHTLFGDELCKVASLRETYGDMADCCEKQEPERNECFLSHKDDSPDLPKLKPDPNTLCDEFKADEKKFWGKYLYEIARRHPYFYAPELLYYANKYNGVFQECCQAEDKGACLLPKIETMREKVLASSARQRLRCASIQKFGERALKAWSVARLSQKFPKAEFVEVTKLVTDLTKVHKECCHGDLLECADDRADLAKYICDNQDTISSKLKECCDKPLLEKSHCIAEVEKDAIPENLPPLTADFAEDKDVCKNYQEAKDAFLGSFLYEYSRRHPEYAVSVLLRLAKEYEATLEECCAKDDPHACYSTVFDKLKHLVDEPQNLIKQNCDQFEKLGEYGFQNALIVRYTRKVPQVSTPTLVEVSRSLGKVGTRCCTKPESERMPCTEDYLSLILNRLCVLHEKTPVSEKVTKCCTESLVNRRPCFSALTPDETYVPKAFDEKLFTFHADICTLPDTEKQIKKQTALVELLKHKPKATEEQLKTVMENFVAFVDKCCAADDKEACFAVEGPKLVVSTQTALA

`Oc1ccc(C=Cc2cc(O)cc(O)c2)cc1` [resveratrol, 3,5,4′-trihydroxystilbene] yielded an inhibition at 1 µM against bovine serum albumin of 17%. The same molecule displayed an inhibition at 10 µM on bovine serum albumin of 29.8%. In addition, the “% Inhibition” value in test [1] (resveratrol 10^−4 M) came out at 80%; in test [1] (resveratrol 10^−5 M), 51%; in test [1] (resveratrol 10^−6 M), 59%; in test [1] (resveratrol 10^−7 M), 45%.
